In patent US12552783B2, “Modulators of proteolysis and associated methods of use” (Arvinas Operations, Inc., priority 2018, dated 2026):

Molecular target: KRas (Homo sapiens, UniProt P01116, G12C)
Experiment: KRas degradation in NCI-H2030 cells by Western blot, normalized to GAPDH (data of Table 14)
Format: cell-based
Design: host or cells: NCI-H2030
Details: for Percent Degradation at Indicated Concentration (μM): H2030; for Dmax: NCI-H2030
In short: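 Degradation of endogenous homozygous G12C KRas is measured by immunoblot after serum starvation and compound exposure at three final concentrations (0.3, 1 and 3 μM). VHL-recruiting compounds are incubated 24 h and all others 72 h. Percent loss is calculated from GAPDH-normalized KRas relative to vehicle.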

| SMILES | Percent Degradation at Indicated Concentration (μM) (0.3 μM) | Percent Degradation at Indicated Concentration (μM) (1 μM) | Percent Degradation at Indicated Concentration (μM) (3 μM) | Dmax [%] | Percent Degradation at Indicated Concentration (μM): 0.3 (H2030 cells, 0.3 μM) | Percent Degradation at Indicated Concentration (μM): 1 (H2030 cells, 1 μM) | Percent Degradation at Indicated Concentration (μM): 3 (H2030 cells, 3 μM) | Dmax (H2030 cells) [%] |
| --- | --- | --- | --- | --- | --- | --- | --- | --- |
| C=CC(=O)N1CCN(c2nc(NCCC(=O)N(C)CCOCCOCCOc3cc(-c4scnc4C)ccc3CNC(=O)[C@@H]3C[C@@H](O)CN3C(=O)[C@@H](c3cc(C)no3)C(C)C)nc3c(F)c(-c4cc(O)cc5ccccc45)c(Cl)cc23)CC1 [compound 341, (2S,4R)-N-(2-(2-(2-(2-(3-((4-(4-acryloylpiperazin-1-yl)-6-chloro-8-fluoro-7-(3-hydroxynaphthalen-1-yl)quinazolin-2-yl)amino)-N-methylpropanamido)ethoxy)ethoxy)ethoxy)-4-(4-methylthiazol-5-yl)benzyl)-4-hydroxy-1-((R)-3-methyl-2-(3-methylisoxazol-5-yl)butanoyl)pyrrolidine-2-carboxamide] | C (Percent Degradation: C ≤ 35) | C (Percent Degradation: C ≤ 35) | C (Percent Degradation: C ≤ 35) | ≤ 35 | – | – | – | – |
| C=CC(=O)N1CCN(c2nc(NCCC(=O)N(C)CCOCCOCCOc3cc(-c4scnc4C)ccc3CNC(=O)[C@@H]3C[C@@H](O)CN3C(=O)[C@H](c3cc(C)no3)C(C)C)nc3c(F)c(-c4cc(O)cc5ccccc45)c(Cl)cc23)CC1 [compound 342, (2S,4R)-N-(2-(2-(2-(2-(3-((4-(4-acryloylpiperazin-1-yl)-6-chloro-8-fluoro-7-(3-hydroxynaphthalen-1-yl)quinazolin-2-yl)amino)-N-methylpropanamido)ethoxy)ethoxy)ethoxy)-4-(4-methylthiazol-5-yl)benzyl)-4-hydroxy-1-((S)-3-methyl-2-(3-methylisoxazol-5-yl)butanoyl)pyrrolidine-2-carboxamide] | C (Percent Degradation: C ≤ 35) | C (Percent Degradation: C ≤ 35) | C (Percent Degradation: C ≤ 35) | ≤ 35 | – | – | – | – |
| C=CC(=O)N1CCN(c2nc(NCCC(=O)N(C)CCOCCOCCOCCOc3cc(-c4scnc4C)ccc3CNC(=O)[C@@H]3C[C@@H](O)CN3C(=O)[C@@H](c3cc(C)no3)C(C)C)nc3c(F)c(-c4cc(O)cc5ccccc45)c(Cl)cc23)CC1 [compound 343, (2S,4R)-N-(2-((15-((4-(4-acryloylpiperazin-1-yl)-6-chloro-8-fluoro-7-(3-hydroxynaphthalen-1-yl)quinazolin-2-yl)amino)-12-methyl-13-oxo-3,6,9-trioxa-12-azapentadecyl)oxy)-4-(4-methylthiazol-5-yl)benzyl)-4-hydroxy-1-((R)-3-methyl-2-(3-methylisoxazol-5-yl)butanoyl)pyrrolidine-2-carboxamide] | C (Percent Degradation: C ≤ 35) | C (Percent Degradation: C ≤ 35) | C (Percent Degradation: C ≤ 35) | ≤ 35 | – | – | – | – |
| C=CC(=O)N1CCN(c2nc(NCCC(=O)N(C)CCOCCOCCOCCOc3cc(-c4scnc4C)ccc3CNC(=O)[C@@H]3C[C@@H](O)CN3C(=O)[C@H](c3cc(C)no3)C(C)C)nc3c(F)c(-c4cc(O)cc5ccccc45)c(Cl)cc23)CC1 [compound 344] | C (Percent Degradation: C ≤ 35) | C (Percent Degradation: C ≤ 35) | C (Percent Degradation: C ≤ 35) | ≤ 35 | – | – | – | – |
| C=CC(=O)N1CCN(c2nc(NCCC(=O)N(C)CCOCCOCCOCCOCCOc3cc(-c4scnc4C)ccc3CNC(=O)[C@@H]3C[C@@H](O)CN3C(=O)[C@@H](c3cc(C)no3)C(C)C)nc3c(F)c(-c4cc(O)cc5ccccc45)c(Cl)cc23)CC1 [compound 345, (2S,4R)-N-(2-((18-((4-(4-acryloylpiperazin-1-yl)-6-chloro-8-fluoro-7-(3-hydroxynaphthalen-1-yl)quinazolin-2-yl)amino)-15-methyl-16-oxo-3,6,9,12-tetraoxa-15-azaoctadecyl)oxy)-4-(4-methylthiazol-5-yl)benzyl)-4-hydroxy-1-((R)-3-methyl-2-(3-methylisoxazol-5-yl)butanoyl)pyrrolidine-2-carboxamide] | – | – | – | – | C (C ≤ 35) | C (C ≤ 35) | C (C ≤ 35) | ≤ 35 |

Results, then the molecule that gave them:

| Percent Degradation at Indicated Concentration (μM) (0.3 μM) | Percent Degradation at Indicated Concentration (μM) (1 μM) | Percent Degradation at Indicated Concentration (μM) (3 μM) | Dmax [%] | Percent Degradation at Indicated Concentration (μM): 0.3 (H2030 cells, 0.3 μM) | Percent Degradation at Indicated Concentration (μM): 1 (H2030 cells, 1 μM) | Percent Degradation at Indicated Concentration (μM): 3 (H2030 cells, 3 μM) | Dmax (H2030 cells) [%] | SMILES |
| --- | --- | --- | --- | --- | --- | --- | --- | --- |
| C (Percent Degradation: C ≤ 35) | C (Percent Degradation: C ≤ 35) | C (Percent Degradation: C ≤ 35) | ≤ 35 | – | – | – | – | C=CC(=O)N1CCN(c2nc(NCCC(=O)N(C)CCOCCOCCOCCOCCOc3cc(-c4scnc4C)ccc3CNC(=O)[C@@H]3C[C@@H](O)CN3C(=O)[C@H](c3cc(C)no3)C(C)C)nc3c(F)c(-c4cc(O)cc5ccccc45)c(Cl)cc23)CC1 [compound 346, (2S,4R)-N-(2-((18-((4-(4-acryloylpiperazin-1-yl)-6-chloro-8-fluoro-7-(3-hydroxynaphthalen-1-yl)quinazolin-2-yl)amino)-15-methyl-16-oxo-3,6,9,12-tetraoxa-15-azaoctadecyl)oxy)-4-(4-methylthiazol-5-yl)benzyl)-4-hydroxy-1-((S)-3-methyl-2-(3-methylisoxazol-5-yl)butanoyl)pyrrolidine-2-carboxamide] |
| C (Percent Degradation: C ≤ 35) | C (Percent Degradation: C ≤ 35) | C (Percent Degradation: C ≤ 35) | ≤ 35 | – | – | – | – | Cc1ncsc1-c1ccc([C@H](C)NC(=O)[C@@H]2C[C@@H](O)CN2C(=O)[C@@H](NC(=O)COCC/C=C/C(=O)N2CCN(c3nc(NCCC(=O)N(C)C)nc4c(F)c(-c5cc(O)cc6ccccc56)c(Cl)cc34)CC2)C(C)(C)C)cc1 [compound 363, (2S,4R)-1-((2S)-2-(2-(((E)-5-(4-(6-chloro-2-((3-(dimethylamino)-3-oxopropyl)amino)-8-fluoro-7-(3-hydroxynaphthalen-1-yl)quinazolin-4-yl)piperazin-1-yl)-5-oxopent-3-en-1-yl)oxy)acetamido)-3,3-dimethylbutanoyl)-4-hydroxy-N-((S)-1-(4-(4-methylthiazol-5-yl)phenyl)ethyl)pyrrolidine-2-carboxamide] |
| C (Percent Degradation: C ≤ 35) | C (Percent Degradation: C ≤ 35) | C (Percent Degradation: C ≤ 35) | ≤ 35 | – | – | – | – | Cc1ncsc1-c1ccc([C@H](C)NC(=O)[C@@H]2C[C@@H](O)CN2C(=O)[C@@H](NC(=O)COCCOCCOCCOCC/C=C/C(=O)N2CCN(c3nc(NCCC(=O)N(C)C)nc4c(F)c(-c5cc(O)cc6ccccc56)c(Cl)cc34)CC2)C(C)(C)C)cc1 [compound 366] |
| C (Percent Degradation: C ≤ 35) | C (Percent Degradation: C ≤ 35) | C (Percent Degradation: C ≤ 35) | ≤ 35 | – | – | – | – | Cc1ncsc1-c1ccc([C@H](C)NC(=O)[C@@H]2C[C@@H](O)CN2C(=O)[C@@H](NC(=O)COCCOCC/C=C/C(=O)N2CCN(c3ncnc4c(F)c(-c5cc(O)cc6ccccc56)c(Cl)cc34)CC2)C(C)(C)C)cc1 [compound 373, (2S,4R)-1-((2S)-2-(2-(2-(((E)-5-(4-(6-chloro-8-fluoro-7-(3-hydroxynaphthalen-1-yl)quinazolin-4-yl)piperazin-1-yl)-5-oxopent-3-en-1-yl)oxy)ethoxy)acetamido)-3,3-dimethylbutanoyl)-4-hydroxy-N-((S)-1-(4-(4-methylthiazol-5-yl)phenyl)ethyl)pyrrolidine-2-carboxamide] |
